Experimental data as given in ChEMBL document CHEMBL2074528, “Canalicular multispecific organic anion transporter/multidrug resistance protein 2 mediates low-affinity transport of reduced glutathione” (Biochem J, 1999).

B1: ATP-binding cassette sub-family C member 2 (Homo sapiens) (protein)
chain: MLEKFCNSTFWNSSFLDSPEADLPLCFEQTVLVWIPLGYLWLLAPWQLLHVYKSRTKRSSTTKLYLAKQVFVGFLLILAAIELALVLTEDSGQATVPAVRYTNPSLYLGTWLLVLLIQYSRQWCVQKNSWFLSLFWILSILCGTFQFQTLIRTLLQGDNSNLAYSCLFFISYGFQILILIFSAFSENNESSNNPSSIASFLSSITYSWYDSIILKGYKRPLTLEDVWEVDEEMKTKTLVSKFETHMKRELQKARRALQRRQEKSSQQNSGARLPGLNKNQSQSQDALVLEDVEKKKKKSGTKKDVPKSWLMKALFKTFYMVLLKSFLLKLVNDIFTFVSPQLLKLLISFASDRDTYLWIGYLCAILLFTAALIQSFCLQCYFQLCFKLGVKVRTAIMASVYKKALTLSNLARKEYTVGETVNLMSVDAQKLMDVTNFMHMLWSSVLQIVLSIFFLWRELGPSVLAGVGVMVLVIPINAILSTKSKTIQVKNMKNKDKRLKIMNEILSGIKILKYFAWEPSFRDQVQNLRKKELKNLLAFSQLQCVVIFVFQLTPVLVSVVTFSVYVLVDSNNILDAQKAFTSITLFNILRFPLSMLPMMISSMLQASVSTERLEKYLGGDDLDTSAIRHDCNFDKAMQFSEASFTWEHDSEATVRDVNLDIMAGQLVAVIGPVGSGKSSLISAMLGEMENVHGHITIKGTTAYVPQQSWIQNGTIKDNILFGTEFNEKRYQQVLEACALLPDLEMLPGGDLAEIGEKGINLSGGQKQRISLARATYQNLDIYLLDDPLSAVDAHVGKHIFNKVLGPNGLLKGKTRLLVTHSMHFLPQVDEIVVLGNGTIVEKGSYSALLAKKGEFAKNLKTFLRHTGPEEEATVHDGSEEEDDDYGLISSVEEIPEDAASITMRRENSFRRTLSRSSRSNGRHLKSLRNSLKTRNVNSLKEDEELVKGQKLIKKEFIETGKVKFSIYLEYLQAIGLFSIFFIILAFVMNSVAFIGSNLWLSAWTSDSKIFNSTDYPASQRDMRVGVYGALGLAQGIFVFIAHFWSAFGFVHASNILHKQLLNNILRAPMRFFDTTPTGRIVNRFAGDISTVDDTLPQSLRSWITCFLGIISTLVMICMATPVFTIIVIPLGIIYVSVQMFYVSTSRQLRRLDSVTRSPIYSHFSETVSGLPVIRAFEHQQRFLKHNEVRIDTNQKCVFSWITSNRWLAIRLELVGNLTVFFSALMMVIYRDTLSGDTVGFVLSNALNITQTLNWLVRMTSEIETNIVAVERITEYTKVENEAPWVTDKRPPPDWPSKGKIQFNNYQVRYRPELDLVLRGITCDIGSMEKIGVVGRTGAGKSSLTNCLFRILEAAGGQIIIDGVDIASIGLHDLREKLTIIPQDPILFSGSLRMNLDPFNNYSDEEIWKALELAHLKSFVASLQLGLSHEVTEAGGNLSIGQRQLLCLGRALLRKSKILVLDEATAAVDLETDNLIQTTIQNEFAHCTVITIAHRLHTIMDSDKVMVLDNGKIIECGSPEELLQIPGPFYFMAKEAGIENVNSTKF

How the values were obtained:
MRP2 (ABCC2) = MRP2 (ABCC2) (Homo sapiens, UniProt Q92887); experiment: in vitro; settings: dog, membrane vesicles from MRP2-expressing MDCK cells, probe DNP-SG
Description: TP_TRANSPORTER: inhibition of DNP-SG uptake (DNP-SG: 0.015 uM, GSH: 15 mM) in membrane vesicles from MRP2-expressing MDCK cells

[1] = substrate: N[C@@H](CCC(=O)N[C@H](CSc1ccc([N+](=O)[O-])cc1[N+](=O)[O-])C(=O)NCC(=O)O)C(=O)O; experiment: TP_TRANSPORTER: uptake in membranes from MRP2-expressing MDCK cells; assay type: functional, cell membranes, MDCK-II, Membrane

Row | Molecule | activity at 15 mM (MRP2 (ABCC2)) | Km [1]
1 | N[C@@H](CCC(=O)N[C@@H](CS)C(=O)NCC(=O)O)C(=O)O [GLUTATHIONE] | 51% | –
2 | B1 | – | 70 µM
